Some test systems named below: CAKI-1 renal; K-562 leukemia; MCF7 breast; RXF 393 renal; SN12C renal; SNB-19 CNS; SR leukemia; UACC-257 melanoma; SK-MEL-28 melanoma; SK-MEL-5 melanoma.
What all share (experiment): NCI anticancer screen, dose series, 48 h

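Method: 48-hour compound exposure of cells in 96-well plates, five concentrations, linear interpolation of endpoints. Here, GI50 denotes the concentration required for 50% inhibition of growth. At the TGI there is no net growth.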 Some results are limits rather than exact numbers.

As for `COc1ccc2c(c1)C(=O)c1c-2n(CCCN)c(=O)c2cc([N+](=O)[O-])ccc12`, the GI50 in the test on CAKI-1 renal, in the test on K-562 leukemia, in the test on MCF7 breast, with RXF 393 renal, with SN12C renal and with SNB-19 CNS was less than 0.01 µM in each case. For the same molecule, the GI50 in the test on SR leukemia and in the test on UACC-257 melanoma was less than 0.01 µM each time. In addition, the TGI in the test with CAKI-1 renal is less than 0.01 µM; with K-562 leukemia, 1.31 µM; in the test on MCF7 breast it was less than 0.01 µM; with RXF 393 renal, less than 0.01 µM; with SN12C renal, less than 0.01 µM; in the test with SNB-19 CNS it was 2.13 µM. The TGI with SR leukemia was less than 0.01 µM; in the test with UACC-257 melanoma, 0.736 µM.
With `O=C(Nc1cnc(C(F)(F)F)cn1)c1cc(Cl)ccc1O`, the GI50 is 0.272 µM in the test with K-562 leukemia; 0.29 µM in the test on MCF7 breast; 0.318 µM in the test with RXF 393 renal; 0.257 µM in the test on SK-MEL-28 melanoma; 0.131 µM in the test on SK-MEL-5 melanoma; 0.326 µM with SN12C renal. In addition, the GI50 was 0.403 µM in the test with SNB-19 CNS, 0.347 µM with SR leukemia and 0.267 µM in the test with UACC-257 melanoma. Further, the TGI in the test with K-562 leukemia was more than 100 µM; in the test on MCF7 breast it was more than 100 µM; with RXF 393 renal, 0.922 µM; in the test with SK-MEL-28 melanoma, 2.2 µM; with SK-MEL-5 melanoma, 0.336 µM; in the test on SN12C renal, 52.4 µM. Also, the TGI in the test on SNB-19 CNS is more than 100 µM; with SR leukemia it was 2.19 µM; with UACC-257 melanoma, 0.781 µM.
Take `COc1cc(C2CC(=O)Nc3c2cc(Br)c2ccccc32)cc(Br)c1OC` (centres undefined): the GI50 with K-562 leukemia was 0.493 µM; in the test on MCF7 breast, 0.642 µM; in the test on RXF 393 renal, 1.73 µM; in the test on SK-MEL-28 melanoma it was 2.98 µM; in the test on SK-MEL-5 melanoma, 2.82 µM; with SN12C renal, 2.54 µM. In addition, the GI50 in the test on SNB-19 CNS is 2.69 µM; with SR leukemia, 0.416 µM; in the test with UACC-257 melanoma it was 12.6 µM. Besides, the TGI is 20.5 µM with K-562 leukemia; more than 100 µM in the test with MCF7 breast; 3.93 µM in the test on RXF 393 renal; more than 100 µM in the test on SK-MEL-28 melanoma; more than 100 µM in the test on SK-MEL-5 melanoma; more than 100 µM with SN12C renal. The figures for the TGI in the test on SNB-19 CNS, with SR leukemia and in the test on UACC-257 melanoma were 9.96 µM, 1.77 µM and more than 100 µM, respectively.
As for `Cc1ccc(Sc2oc(-c3ccc(C)cc3)nc2[P+](c2ccccc2)(c2ccccc2)c2ccccc2)cc1`, the GI50 in the test with CAKI-1 renal was 0.283 µM; in the test with K-562 leukemia, 0.302 µM; in the test on MCF7 breast, 0.286 µM; in the test with RXF 393 renal, 0.316 µM; with SK-MEL-28 melanoma, 0.595 µM; with SK-MEL-5 melanoma, 0.287 µM. Further, the GI50 is 0.311 µM in the test on SN12C renal, 0.375 µM in the test with SNB-19 CNS and 0.303 µM in the test with UACC-257 melanoma. Besides, the TGI in the test with CAKI-1 renal is 1.06 µM; in the test with K-562 leukemia, 1.52 µM; in the test on MCF7 breast, 1.09 µM; in the test with RXF 393 renal, 1.33 µM; in the test on SK-MEL-28 melanoma, 1.87 µM; in the test with SK-MEL-5 melanoma, 0.785 µM. The TGI with SN12C renal amounted to 1.21 µM; with SNB-19 CNS, 1.47 µM; in the test on UACC-257 melanoma it was 1.15 µM.
Turning to `Nc1cc2cccc[n+]2c2cccc(Cl)c12`, the GI50 is 11.2 µM in the test with K-562 leukemia; 19.4 µM with MCF7 breast; 17 µM in the test with SK-MEL-28 melanoma; 4.94 µM in the test on SK-MEL-5 melanoma; 7.16 µM with SN12C renal; 12.7 µM in the test with SNB-19 CNS. Further, the GI50 was 5.58 µM with SR leukemia and 11.3 µM in the test on UACC-257 melanoma. Also, the TGI with SK-MEL-28 melanoma came to 41.7 µM; in the test with SK-MEL-5 melanoma, 17.8 µM; in the test on SN12C renal it was 42.1 µM; with SNB-19 CNS it was 84.1 µM; in the test on SR leukemia, 51.2 µM; with UACC-257 melanoma, 27.4 µM.
`COc1ccc(Oc2ccccc2NC(=O)CNC(=O)c2cccc3ccccc23)cc1`: the GI50 in the test with K-562 leukemia was 0.143 µM; in the test with MCF7 breast it was 0.259 µM; in the test on RXF 393 renal it was 0.494 µM; with SK-MEL-28 melanoma it was 2.27 µM; with SK-MEL-5 melanoma, 0.377 µM; with SN12C renal, 2.3 µM. The GI50 in the test on SNB-19 CNS was 1.24 µM; with SR leukemia it was 0.166 µM; in the test on UACC-257 melanoma, more than 25 µM. For the same molecule, the TGI with K-562 leukemia was more than 25 µM; in the test with MCF7 breast, more than 25 µM; in the test on RXF 393 renal it was more than 25 µM; with SK-MEL-28 melanoma, more than 25 µM; with SK-MEL-5 melanoma it was 8.41 µM; with SN12C renal, more than 25 µM. Besides, the TGI with SNB-19 CNS, in the test on SR leukemia and in the test on UACC-257 melanoma was more than 25 µM throughout.
As to `CCN(CC)CCC(CNc1c(C)cnc2cc(Cl)ccc12)c1ccc(Cl)cc1` (centres undefined), the GI50 in the test with CAKI-1 renal was 3.51 µM; with MCF7 breast, 3.27 µM; in the test with RXF 393 renal, 4.39 µM; with SK-MEL-5 melanoma it was 1.73 µM; with SN12C renal it was 12.8 µM; in the test on SNB-19 CNS it was 11.4 µM. The GI50 with SR leukemia was 0.0333 µM. For the same molecule, the TGI with CAKI-1 renal came to 16.8 µM; in the test on MCF7 breast, 16.3 µM; with RXF 393 renal, 18.4 µM; with SK-MEL-5 melanoma, 3.18 µM; in the test with SN12C renal, 28.8 µM; in the test with SNB-19 CNS it was 26.8 µM. In addition, in the test with SR leukemia, the TGI came to 7.06 µM.
In the case of `Nc1ncccc1-c1nc2ccc(-c3ccccc3)nc2n1-c1ccc(C2(N)CCC2)cc1`, the GI50 with K-562 leukemia is 1.89 µM; with MCF7 breast, 0.0465 µM; in the test on RXF 393 renal, 0.214 µM; with SK-MEL-28 melanoma it was 1.2 µM; with SK-MEL-5 melanoma, 1.36 µM; in the test with SN12C renal, 2.29 µM. In addition, the GI50 in the test with SNB-19 CNS was 1.5 µM; with SR leukemia, 1.74 µM; in the test on UACC-257 melanoma, 1.28 µM. The TGI came out at 4.5 µM with K-562 leukemia; 1.68 µM in the test with MCF7 breast; 1.63 µM in the test with RXF 393 renal; 2.66 µM with SK-MEL-28 melanoma; 2.67 µM in the test on SK-MEL-5 melanoma; 13.5 µM with SN12C renal. Also, the TGI in the test on SNB-19 CNS worked out at 3.67 µM; in the test on SR leukemia it was 4.75 µM; in the test on UACC-257 melanoma, 2.73 µM.

The values are drawn from PubChem BioAssay (NCI).
